According to publication PMC11678237 (2024):
Each block holds one molecule with its values, some of them ahead of it.

What was measured:
[1] = test system: poly(dA)•2poly(dT) (DNA, polymer) A/T; assay: UV melting, 260 nm; settings: pH 7.0; for binding / ΔTm3→2: 150 mM KCl, 10 mM sodium cacodylate; for ΔTm3→2: per base
[2] = test system: DNA3 (DNA, triplex) GAAAAAAAAAAAAAGTTTTCTTTTTTTTTTTTCTTTTCTTTTTTTTTTTTTC; assay: ITC; settings: 100 mM NaCl, 10 mM sodium cacodylate, pH 7.0, 15 °C; for Kd: independent model
[3] = test system: poly(dA)•poly(dT) (DNA, polymer) A/T; assay: UV melting; settings: 150 mM KCl; 10 mM sodium cacodylate, pH 7.0; 10 μM compound; Tm2→1 stays near 72 °C
[4] = test system: DNA1/DNA2/TFO1 triplex (DNA, triplex) ATGGCAAAAAAAAGGAGAAGCTGACCACCTGACTA/TAGTCAGGTGGTCAGCTTCTCCTTTTTTTTGCCAT/CTTTCTTTTTTTTTCCTCTTC; assay: native PAGE gel shift; settings: none added; 90 mM Tris–acetate, pH 5.0; 1 to 100 μM compound; triplex formation promoted
[5] = test system: DNA4 (DNA, hairpin) GAAAAAAAAAAAAAGTTTTCTTTTTTTTTTTTTC; assay: ITC; settings: 100 mM NaCl; 10 mM sodium cacodylate, pH 7.0, 15 °C; 100 μM ligand titrant; heat of dilution only
[6] = test system: DNA4 (DNA, hairpin) GAAAAAAAAAAAAAGTTTTCTTTTTTTTTTTTTC; assay: CD titration; settings: 100 mM NaCl; 10 mM sodium cacodylate, pH 7.0, 15 °C; 0 to 50 μM compound
[7] = test system: poly(dA)•2poly(dT) (DNA, polymer) A/T; assay: viscosity; settings: 150 mM KCl; 10 mM sodium cacodylate, pH 7.0, room temperature; intercalation
[8] = test system: DNA3 (DNA, triplex) GAAAAAAAAAAAAAGTTTTCTTTTTTTTTTTTCTTTTCTTTTTTTTTTTTTC; assay: CD titration; settings: 100 mM NaCl; 10 mM sodium cacodylate, pH 7.0, 15 °C; 0 to 50 μM compound
[9] = 10 μM compound, 15 μM base triplet
[10] = 10 mM lithium cacodylate, no added salt, 10 μM compound, Tm not shift, no triplex without ligand, duplex Tm 58 °C

binding [1, 9]: no
SMILES: CC(C)CCCOc1cccc2oc(-c3ccccc3)cc(=O)c12

ΔTm3→2 [1, 9]: 24.4 °C
SMILES: CCN(CC)CCCOc1cccc2oc(-c3ccccc3)cc(=O)c12

ΔTm3→2 [1, 9]: 23.2 °C
SMILES: NCCCOc1cccc2oc(-c3ccccc3)cc(=O)c12

binding [3]: no | Kd [2]: 1.01 ± 0.20 × 10^-5 M | binding [4]: yes | binding [5]: no | binding [6]: no | binding [7]: yes | binding [8]: yes | Tm3→1 [1, 10]: 60.7 °C
SMILES: O=c1cc(-c2ccccc2)oc2cccc(OCCCN3CCCCC3)c12

More lines, now with the values behind:

SMILES: CCCN(CCC)CCCOc1cccc2oc(-c3ccccc3)cc(=O)c12
ΔTm3→2 [1, 9]: 23.8 °C

SMILES: CN1CCN(CCCOc2cccc3oc(-c4ccccc4)cc(=O)c23)CC1
ΔTm3→2 [1, 9]: 25.7 °C

SMILES: NC[C@@H]1O[C@H](O[C@H]2[C@@H](O)[C@H](O[C@@H]3[C@@H](O)[C@H](N)C[C@H](N)[C@H]3O[C@H]3O[C@H](CN)[C@@H](O)[C@H](O)[C@H]3N)O[C@@H]2CO)[C@H](N)[C@@H](O)[C@@H]1O
binding ([1]; 0 to 20 μM compound, no effect at 0.5 μM): yes

SMILES: O=c1cc(-c2ccccc2)oc2cccc(O)c12
binding ([2]; 100 μM ligand titrant, heat of dilution only): no | binding [1, 9]: weak

SMILES: O=c1cc(-c2ccccc2)oc2cccc(OCCCCN3CCCCC3)c12
Kd [2]: 3.08 ± 1.26 × 10^-5 M | Tm3→2 [1, 10]: 40 °C | ΔTm3→2 [1, 9]: 12.1 °C

SMILES: O=c1cc(-c2ccccc2)oc2cccc(OCCCN3CCCC3)c12
ΔTm3→2 [1, 9]: 19.4 °C

SMILES: O=c1cc(-c2ccccc2)oc2cccc(OCCCN3CCOCC3)c12
ΔTm3→2 [1, 9]: 26.7 °C

SMILES: O=c1cc(-c2ccccc2)oc2cccc(OCCCO)c12
ΔTm3→2 [1, 9]: 5.4 °C

SMILES: O=c1cc(-c2ccccc2)oc2cccc(OCCN3CCCCC3)c12
Kd [2]: 2.10 ± 1.12 × 10^-5 M | Tm3→2 [1, 10]: 55 °C | ΔTm3→2 [1, 9]: 22.6 °C
